Laboratory results as given in patent US4680382A, “Analogues of actinomycin D” (priority 1986, dated 1987).

Assays:
[1] = test system: B16 melanoma; test: In vivo antitumor activity against B16 melanoma; design: species or system BDF1 mice; conditions: for % ILS / surv (survivors on day 65/total injected) / MST (range): at optimal dose; for MST (range): control 29 (20-48); for optimal dose: ip, days 1, 5, 9
Description: AMD-OZL analogues 9a and 10a were about as active as AMD and 7-hydroxy-AMD. The potencies of these analogues are reduced in comparison to that of AMD; their optimal doses were higher than that of AMD.
^a 0.2 mL of 1:5 (weight/volume) brei of B16 melanoma implanted
ip on day 0 in groups of nine BDF1 mice. Drugs administered ip.
^b MST (range) median survival time in days (range of individual
^c % ILS (surv), percent increase in lifespan (survivors on day

[2] = test system: P388/ADR; test: In vivo activity against P388/adriamycin-resistant leukemia; design: species or system BDF1 mice; conditions: for P388/ADR optimal dose: ip, days 1, 5 and 9
Description: (§1) ^a Male BDF1 mice inoculated ip: 10^6 cells inoculum, day 0.
(§2) Drugs administered in 10% dimethyl sulfoxidesaline on days 1, 5 and 9. %
(§3) ILS = percent increase in life span. Fractions in parentheses = tumorfree
(§4) survivors/total on day 60. P388/S (adriamycin sensitive) and P388/ADR
(§5) (adriamycin resistant) tumors were evaluated in the same experiment with […]

[3] = test system: P388/S; test: In vivo activity against P388/S (adriamycin sensitive) leukemia, Table VII; design: species or system BDF1 mice; conditions: for P388/S % ILS / P388/S tumor-free survivors/total on day 60: at optimal dose; for P388/S optimal dose: ip, days 1, 5 and 9
Description: as §1, §2, §3, §4, §5

[4] = test system: P388 cells; test: Inhibition of RNA synthesis (2-[14C]uridine incorporation) in P388 cells; assay type: cell-based, murine; conditions: for IC50: 50% reduction in 1 hr of 2-[14C]uridine incorporation, read-out: IC50 RNA synth; for IC50 DNA/IC50 RNA: ratio
Description: (§6) Experiments for inhibition of nucleic acid synthesis in tumor cells in vitro were carried out with P388 tumor cells, details of which were reported by Sengupta et al, J. Med. Chem., 18, 1175 (1975). […] AMD-OZLs inhibit either process with equal activity and with the potency of its metabolite 7-hydroxy-AMD.
^b IC50 (RNA) = concentration of inhibitor in μM required to
cause 50% reduction (in 1 hr) in 2[^14 C]uridine incorporation into
acid precipitable material with use of P388 cells.

[5] = test system: P388 cells; test: Inhibition of DNA synthesis (methyl-[3H]thymidine incorporation) in P388 cells; assay type: cell-based, murine; conditions: 50% reduction in 1 hr of methyl-[3H]thymidine incorporation, read-out: IC50 DNA synth
Description: as §6
^c IC50 (DNA) = concentration of inhibitor in μM required to
cause 50% reduction (in 1 hr) in methyl[^3 H]thymidine incorporation
into acid precipitable material with use of P388 cells.

[6] = Maximum tolerated dose (LD10) in tumor-free BDF1 male mice; assay type: in vivo; conditions: lethal dose for 10% normal BDF1 male mice, 21 days (LD10); ip days 1, 5 and 9
Description: (§7) These analogues were also tested in tumor-free BDF1 male mice for determination of their MTD values (Table VIII). The animals (18-22 g) were given a broad range of doses of drugs in 5% dimethyl sulfoxide-saline on days 1, 5 and 9. Drugs were administered ip and the maximum tolerated doses of agents which caused death in only 10% of the tested animals in 21 days (i.e., LD10) were recorded as MTD. […] However, the MED values of 7-hydroxy-AMD and its precursor AMD-OZL 10a are high and are seven to tenfold of the MED values of 4a and 8a. On the basis of these MED values, the therapeutic indices of 8a and 4a are 70 and 96. The therapeutic index of 2a is 13, of 10a 10, and of AMD only 4.
^c MTD (maximum tolerated dose) is the lethal dose
(milligram/kilogram) for 10% normal BDF1 male mice (18-22 g); animal
calculated from a plot of logdose vs. percent mortality.

[7] = test system: P388 Leukemia; test: Minimum effective dose and therapeutic index vs. P388 leukemia; assay type: in vivo; conditions: dose giving 45% increase in life span in P388 tumor bearing mice; ip days 1, 5 and 9
Description: as §7
^a Drugs administered ip once on days 1, 5 and 9 starting 1 day after
tumor implantation. Determinations were made from analysis of plotted
^b MED (minimum effective dose) is the dose (milligram/kilogram)
providing an increase in life span of 45% over control in P388 tumor

[8] = test system: CCRF-CEM human lymphoblastic leukemic cells; test: In vitro cytotoxicity against CCRF-CEM cells; assay type: cell-based; conditions: 48 hr
Description: ^a Human lymphoblastic leukemic cells.
The analogues were tested for their cytotoxicity against tumor cells (time, 48 hr). […] This may be associated with the initial microsomal transformation of the "reverse" analogues to "symmetrical" analogue and/or other alternate bioactive forms (e.g., free-radicals, O2^-), followed by deactivation via formation of conjugates and facile elimination of these from the host. The "reverse" analogues show reduced toxicity in vivo and also the tritiated "reverse" 7a is metabolized in vitro.

[9] = test system: P388 lymphocytic leukemia; test: In vivo antitumor activity against P388 leukemia; design: species or system BDF1 mice; conditions: for surv (surviving mice/total mice at 60 days) / % ILS / MST (range): P388, at optimal dose; for % ILS: 100(T/C - 1); for MST (range): control 11.0 (9-12); for optimal dose: P388, ip, days 1, 5 and 9, optimal nontoxic dose
Description: The analogues were tested for their antitumor activities in P388 lymphocytic leukemia in male BDF1 mice. The tumor was implanted intraperitoneally (ip) with 10^6 cells. The drugs were also administered ip once daily on days 1, 5 and 9, beginning 1 day after tumor transplantation. Analogues were tested over a range of doses, but only the optimal nontoxic doses are listed.
^a 10^6 P388 cells implanted ip on day 0 into groups of eight
BDF1 male mice. Drugs administered ip. MST (range), median survival
time in days (range of individual animal deaths); % ILS, percent increase
in life span, calculated 100(T/C - 1), where T and C are median survival
times of treated and control animals; surv, number of surviving mice/tota

[10] = test system: DNA; test: Thermal denaturation of DNA (ΔTm); assay type: binding
Description: (§8) The "reverse" analogues bind to calf-thymus DNA, but the spectrophotometrically determined binding (Kapp and Bapp, equilibrium binding values) constants are found to be lower than those of AMD. The binding is also measured by thermal denaturation of DNA.
(§9) The equilibrium binding constants (Kapp and Bapp) of the "reverse" methyl 7a and the "reverse" phenyl 8a were determined from the Scatchard plots of binding isotherms; the Scatchard plots are produced according to the previously described methods using calf-thymus DNA [Sengupta et al, Biochem. Biophys. Acta 521, 89 (1978)]. The Kapp values are 2.5×10^6 and 2.3×10^6 M^-1, respectively; corresponding Bapp values are 0.038 and 0.036. […] But, these "reverse" analogues associate with DNA less strongly; their frequency of binding is also lower compared to that of AMD. However, the "reverse" analogues fail to cause any measurable change in the ratio of the intrinsic viscosity (γ) of DNA with the increasing ratios of [ligand]/DNA base pair (r), even when low molecular weight DNAs (0.5×10^5 to 1.0×10^5) were employed.
Melting points are determined on a Thomas-Hoover melting point apparatus at a heating rate of 2° C./min. Thin-layer chromatography was performed on silica gel plates (Brinkmann Instrument Inc.). Solvent systems were (A) EtOAc-acetone (4:1), (B) CHCl3 -MeOH (9:1) and (C) Cifferri, the organic phase of the mixture EtOAc-MeOH-H2 O (20:1:20). High-performance liquid chromatography was carried out on a Varian Model 5020 gradient liquid chromatograph equipped with a CD-111L chromatography data system and fitted with a Varian reversed-phase C18 column with the following solvent systems: I, CH3 CN-5 mM NH4 OAc buffer, pH 6.4 (68:32 isocratic), flow rate 1.5 mL/min; II, 65-95% water-methanol gradient for 70 min, 1 mL/min; III, 10-90% H2 O-MeOH gradient for 120 min, 1 mL/min, with UV-visible variable- and fixed-wavelength dual detectors at 254, 440, 470 and 520 nm. IR spectra were obtained on a Perkin-Elmer Model 237 Infra Cord with KBr micropellets or in chloroform solutions. UV-visible spectra were obtained on a Gilford 250 spectrophorometer, which, with the addition of a base-line reference compensator (Analog Multiplexer 5053) and thermoprogrammer, auto four cell programmer and thermoelectric cell holder 2577, were used to obtain thermal denaturation curves. Specific rotation values were determined in chloroform solutions with a Cary 60 spectropolarimeter. NMR spectra were obtained in a JEOL FQ-90 MHz spectrometer equipped with Fourier transform. EPR spectra analyses were recorded in a Varian E-9 EPR spectrometer. All elemental analyses were within ±0.4%.

[11] = test system: calf-thymus DNA; test: Equilibrium binding to calf-thymus DNA, Scatchard plots of binding isotherms (spectrophotometric); conditions: Scatchard plot
Description: as §8, §9

SMILES | % ILS [1] [%] | surv (survivors on day 65/total injected) [1] | MST (range) [1] | optimal dose [1] [μg/kg per inj] | P388/ADR % ILS ([2]; at optimal dose) [%] | P388/ADR optimal dose [2] [mg/kg] | P388/S % ILS [3] [%] | P388/S tumor-free survivors/total on day 60 [3] | P388/S optimal dose [3] [mg/kg] | IC50 [4] [nM] | IC50 DNA/IC50 RNA [4] | IC50 [5] [nM] | MTD (maximum tolerated dose) [6] [milligram/kilogram] | MED (minimum effective dose) [7] [milligram/kilogram] | in vitro (CCRF-CEM) ID50 [8] [nM] | surv (surviving mice/total mice at 60 days) [9] | % ILS [9] [%] | MST (range) [9] | optimal dose [9] [μg/kg per inj] | other results
Cc1c2oc3c(C)c4oc(-c5ccccc5)nc4c(C(=O)NC4C(=O)NC(C(C)C)C(=O)N5CCCC5C(=O)N(C)CC(=O)N(C)C(C(C)C)C(=O)OC4C)c3nc-2c(C(=O)NC2C(=O)NC(C(C)C)C(=O)N3CCCC3C(=O)N(C)CC(=O)N(C)C(C(C)C)C(=O)OC2C)c(N)c1=O [8a, 7-Amino-9,11-dimethyl-2-phenyl-8H-8-oxooxazolo [4,5-b]phenoxazine 4,6-bis[carbonyl-L-threonyl-D-valyl-L-prolylsarcosyl-L-N-methylvaline(threonine hydroxyl)] lactone] | 103 | 5/9 | 59 (53-59) days | 300 | 132 | 0.6 | 382 | 4/8 | 0.35 | 70 | 11.43 | 800 | 1.80 | 0.03 | 30 | 4/8 | 382 | 52.0 (49-58) days | 375.0 | P388/ADR tumor-free survivors/total on day 60 ([2]; at optimal dose): 1/8; ΔTm (DNA melting temperature) [10]: 6.7±0.2 °C; Bapp (equilibrium binding value) [11]: 0.036; Kapp (equilibrium binding constant) [11]: 2.3e+06 M⁻¹
Cc1c2oc3c(C)c4oc(-c5ccccc5)nc4c(C(=O)NC4C(=O)NC(C(C)C)C(=O)N5CCCC5C(=O)N(C)CC(=O)N(C)C(C(C)C)C(=O)OC4C)c3nc-2c(C(=O)NC2C(=O)NC(C(C)C)C(=O)N3CCCC3C(=O)N(C)CC(=O)N(C)C(C(C)C)C(=O)OC2C)cc1=O (stereo not drawn) [10a, 2-Phenyl-AMD--OZL] | 55 | 2/9 | 45 (33-56) days | 900 | 88 | 1.2 | 186 | 2/8 | 1.0 | 3200 | 1.78 | 5700 | 2.0 | 0.20 | 500 | 2/8 | 186 | 31.5 (29-57) days | 1000.0 | –
